US8871767B2, “2-arylimidazo[1,2-B]pyridazine, 2-phenylimidazo[1,2-A]pyridine, and 2-phenylimidazo[1,2-A]pyrazine derivatives” (Hengrui (USA) Ltd., priority 2010, dated 2014)
Where two headings read alike, the source gives them in different places.

Assays:
[1] = system: Hedgehog pathway activation (GLi-luciferase reporter) in Shh Light II reporter cells; assay: Hedgehog pathway activation on Shh Light II reporter cells measured by luciferase activity; assay type: cell-based; settings: Mus musculus, Shh Light II
Outline: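 Shh Light II reporter cells carrying a hedgehog-responsive GLi-luciferase reporter were stimulated either with 500 nM SAG, a direct Smoothened agonist, or with conditioned media containing human Sonic Hedgehog (hShh). Test compounds were evaluated for blocking this pathway activation, quantified by luciferase activity. Cell viability was monitored in parallel with the Celltiter-Blue® assay.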

[2] = system: Hedgehog pathway activation on 10T1/2/Smo#3 cells (C3H10T1/2 cells transfected with human Smoothened receptor); assay: Hedgehog pathway activation on 10T1/2/Smo#3 cells measured by ALP activity; assay type: cell-based; settings: Mus musculus, C3H 10T1/2, 10T1/2/Smo#3 cells
Outline: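 C3H10T1/2 cells stably expressing human Smoothened were activated with hShh-conditioned medium (10-20%) or 500 nM SAG, with test compounds present. Pathway block read as inhibited ALP activity (4-methylumbelliferyl phosphate fluorescence); viability checked by CellTiter-Blue. IC50 values reported.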

[3] = hShh activation, read-out: Shh (IC50, inhibition of Hedgehog pathway activation)
[4] = measured by ALP activity, read-out: ALP (IC50, inhibition of Hedgehog pathway activation)
[5] = SAG activation (500 nM SAG), read-out: Shh Light II luciferase activity (SAG activation)
[6] = hShh activation, read-out: Shh Light II luciferase activity (hShh activation)
[7] = hShh activation, ALP activity, read-out: 10T1/2/Smo#3 ALP activity (hShh Activation)

Row | SMILES | IC50 [1, 3] [nM] | IC50 [2, 4] [nM] | IC50 [1, 5] [nM] | IC50 [1, 6] [nM] | IC50 [2, 7] [nM]
1 | C[C@@H]1CCCC[C@H]1Oc1ccc2nc(-c3ccc(C(F)(F)F)c(NC(=O)C(C)(C)C)c3)cn2n1 [Example 464, N-(5-(6-((1R,2R)-2-methylcyclohexyloxy)imidazo[1,2-b]pyridazin-2-yl)-2-(trifluoromethyl)phenyl)pivalamide] | 352 | 400 |  |  | 
2 | CC(C)(C)C(=O)Nc1cc(-c2cn3nc(-c4cc(F)ccc4F)ccc3n2)ccc1C(F)(F)F [Example 224, N-(5-(6-(2,5-difluorophenyl)imidazo[1,2-b]pyridazin-2-yl)-2-(trifluoromethyl)phenyl)pivalamide] | 82 | 62 |  |  | 
3 | Cc1cc(-c2ccc3nc(-c4ccc(C(F)(F)F)c(NC(=O)C(C)(C)C)c4)cn3n2)ccn1 [Example 381, N-(5-(6-(2-methylpyridin-4-yl)imidazo[1,2-b]pyridazin-2-yl)-2-(trifluoromethyl)phenyl)pivalamide] | 1250 | 580 |  |  | 
4 | CC(C)(C)C(=O)Nc1cc(-c2cn3ncccc3n2)ccc1Cl [Example 113, N-(2-chloro-5-(imidazo[1,2-b]pyridazin-2-yl)phenyl)pivalamide] | 1000 | 1560 | 3000 to 30000 | 300 to 3000 | 300 to 3000
5 | Cc1ccc(-c2cn3nc(NC(=O)c4cccc(Br)c4)ccc3n2)cc1NC(=O)C(C)(C)C [compound 594] | 20 | 30 |  |  | 
6 | CCOC(=O)CCCCCOc1ccc(-c2ccc3nc(-c4ccc(C)c(NC(=O)C(C)(C)C)c4)cn3n2)c(C(F)(F)F)c1 [Example 412, ethyl 6-(4-(2-(4-methyl-3-pivalamidophenyl)imidazo[1,2-b]pyridazin-6-yl)-3-(trifluoromethyl)phenoxy)hexanoate] | 225 | 665 | 300 to 3000 | < 300 | 300 to 3000
7 | Cc1ccc(-c2cn3nc(-c4ccc(C=CC(=O)NOC5CCCCO5)cc4)ccc3n2)cc1NC(=O)C(C)(C)C (centres unmarked) [compound 558] | 391 | 1060 |  |  | 
8 | CC(C)(C)C(=O)Nc1cc(-c2cn3nc(-c4cccc(F)c4)ccc3n2)ccc1C(F)(F)F [Example 222, N-(5-(6-(3-fluorophenyl)imidazo[1,2-b]pyridazin-2-yl)-2-(trifluoromethyl)phenyl)pivalamide] | 156 | 425 |  |  | 
9 | CC(C)(C)C(=O)Nc1cc(-c2cn3nc(-c4ccncc4)ccc3n2)ccc1C(F)(F)F [Example 169, N-(5-(6-(pyridin-4-yl)imidazo[1,2-b]pyridazin-2-yl)-2-(trifluoromethyl)phenyl)pivalamide] | 710 | 423 |  |  | 
10 | CC(C)(C)C(=O)Nc1cc(-c2cn3nc(-c4cccnc4)ccc3n2)ccc1C(F)(F)F [Example 153, N-(5-(6-(pyridin-3-yl)imidazo[1,2-b]pyridazin-2-yl)-2-(trifluoromethyl)phenyl)pivalamide] | 264 | 410 | 300 to 3000 | < 300 | 300 to 3000
11 | COc1ccc2nc(-c3ccc(Cl)c(NC(=O)C(C)(C)C)c3)cn2n1 [Example 110, N-(2-chloro-5-(6-methoxyimidazo[1,2-b]pyridazin-2-yl)phenyl)pivalamide] | > 10000 | 8040 |  |  | 
12 | Cc1ccc(-c2nc3ccc(N4CCC(O)CC4)nn3c2C)cc1NC(=O)C(C)(C)C [Example 313, N-(5-(6-(4-hydroxypiperidin-1-yl)-3-methylimidazo[1,2-b]pyridazin-2-yl)-2-methylphenyl)pivalamide] | 826 | 636 | 300 to 3000 | 300 to 3000 | 300 to 3000
13 | CCN(CC)S(=O)(=O)c1cc(-c2cn3nc(-c4cccnc4C(F)(F)F)ccc3n2)ccc1Cl [Example 703, 2-chloro-N,N-diethyl-5-(6-(2-(trifluoromethyl)pyridin-3-yl)imidazo[1,2-b]pyridazin-2-yl)benzenesulfonamide] | 1600 | > 10000 |  |  | 
14 | COc1ccc2nc(-c3ccc(C)c(NC(=O)Cc4ccc(Cl)cc4)c3)cn2n1 [Example 101, 2-(4-chlorophenyl)-N-(5-(6-methoxyimidazo[1,2-b]pyridazin-2-yl)-2-methylphenyl)acetamide] | 890 | 7010 | 3000 to 30000 | 300 to 3000 | 3000 to 30000
15 | Cc1ccc(-c2cn3nc(-c4ccc(C(N)=NO)cc4F)ccc3n2)cc1NC(=O)C(C)(C)C [compound 567] | 219 | 298 |  |  | 
16 | COC(=O)CCCCCCNC(=O)c1ccc(-c2ccc3nc(-c4ccc(C)c(NC(=O)C(C)(C)C)c4)cn3n2)c(C(F)(F)F)c1 [compound 509] | 158 | 213 | 300 to 3000 | < 300 | < 300

Row | SMILES | IC50 [1, 3] [nM] | IC50 [2, 4] [nM] | IC50 [1, 5] [nM] | IC50 [1, 6] [nM] | IC50 [2, 7] [nM]
17 | CCOc1ccc2nc(-c3ccc(C(F)(F)F)c(S(=O)(=O)NC4CC4)c3)cn2n1 [Example 212, N-cyclopropyl-5-(6-ethoxyimidazo[1,2-b]pyridazin-2-yl)-2-(trifluoromethyl)benzenesulfonamide] | > 10000 | 5760 | 3000 to 30000 | 3000 to 30000 | 3000 to 30000
18 | CCOc1ccc2nc(-c3ccc(C(F)(F)F)c(NC(=O)C4CCCC4)c3)cn2n1 [Example 189, N-(5-(6-ethoxyimidazo[1,2-b]pyridazin-2-yl)-2-(trifluoromethyl)phenyl)cyclopentanecarboxamide] | 2000 | 2100 |  |  | 
19 | Cc1c(-c2ccccc2)nc2ccc(N3CCN(C(=O)OC(C)(C)C)CC3)nn12 [Example 158, tert-butyl 4-(3-methyl-2-phenylimidazo[1,2-b]pyridazin-6-yl)piperazine-1-carboxylate] | 847 | 7340 | 300 to 3000 | 3000 to 30000 | 3000 to 30000
20 | CC(C)CNc1ccc2nc(-c3ccc(C(F)(F)F)c(NC(=O)C(C)(C)C)c3)cn2n1 [Example 302, N-(5-(6-(isobutylamino)imidazo[1,2-b]pyridazin-2-yl)-2-(trifluoromethyl)phenyl)pivalamide] | 522 | 443 |  |  | 
21 | COc1cc(CNc2cc(-c3cn4nc(OC)ccc4n3)ccc2C)cc(OC)c1 [Example 103, N-(3,5-dimethoxybenzyl)-5-(6-methoxyimidazo[1,2-b]pyridazin-2-yl)-2-methylaniline] | > 10000 | 3930 |  |  | 
22 | CC(C)(C)C(=O)Nc1cc(-c2cn3nc(Oc4ccccc4F)ccc3n2)ccc1C(F)(F)F [Example 195, N-(5-(6-(2-fluorophenoxy)imidazo[1,2-b]pyridazin-2-yl)-2-(trifluoromethyl)phenyl)pivalamide] | 267 | 718 |  |  | 
23 | O=C(Nc1cc(-c2cn3nc(-c4cccnc4C(F)(F)F)ccc3n2)ccc1F)N1CC(F)(F)C1 [Example 684, 3,3-difluoro-N-(2-fluoro-5-(6-(2-(trifluoromethyl)pyridin-3-yl)imidazo[1,2-b]pyridazin-2-yl)phenyl)azetidine-1-carboxamide] | 95 | 356 |  |  | 
24 | Cc1ccc(-c2cn3nc(-c4cc(C(N)=NO)ccc4Cl)ccc3n2)cc1NC(=O)C(C)(C)C [compound 569] | 32 | 86 | 300 to 3000 | < 300 | < 300
25 | CCOc1ccc2nc(-c3ccc(C(F)(F)F)c(S(=O)(=O)NC(C)(C)C)c3)cn2n1 [Example 216, N-tert-butyl-5-(6-ethoxyimidazo[1,2-b]pyridazin-2-yl)-2-(trifluoromethyl)benzenesulfonamide] | 8570 | 8280 |  |  | 
26 | CC(C)(C)OC(=O)n1cccc1-c1ccc2nc(-c3ccc(C(F)(F)F)c(NC(=O)C(C)(C)C)c3)cn2n1 [Example 178, tert-butyl 2-(2-(3-pivalamido-4-(trifluoromethyl)phenyl)imidazo[1,2-b]pyridazin-6-yl)-1H-pyrrole-1-carboxylate] | 468 | 607 |  |  | 
27 | CC(C)(C)C(=O)Nc1cc(-c2cn3nc(N4CCC[C@@H](O)C4)ccc3n2)ccc1C(F)(F)F [Example 357, (R)-N-(5-(6-(3-hydroxypiperidin-1-yl)imidazo[1,2-b]pyridazin-2-yl)-2-(trifluoromethyl)phenyl)pivalamide] | 151 | 445 |  |  | 
28 | Cc1ccc(-c2cn3ncccc3n2)cc1NC(=O)CC(C)(C)C [Example 108, N-(5-(imidazo[1,2-b]pyridazin-2-yl)-2-methylphenyl)-3,3-dimethylbutanamide] | 2470 | 5230 |  |  | 
29 | CCOc1ccc2nc(-c3ccc(C(F)(F)F)c(NC(=O)c4ccccc4F)c3)cn2n1 [Example 192, N-(5-(6-ethoxyimidazo[1,2-b]pyridazin-2-yl)-2-(trifluoromethyl)phenyl)-2-fluorobenzamide] | 1580 | 4760 |  |  | 
30 | CCOc1ccc2nc(-c3ccc(C(F)(F)F)c(C(=O)NC(C)(C)C)c3)cn2n1 [Example 211, N-tert-butyl-5-(6-ethoxyimidazo[2,1-f]pyridazin-2-yl)-2-(trifluoromethyl)benzamide] | 1020 | 6960 |  |  | 
31 | Cc1ccc(-c2cn3nc(-c4ccccc4C(F)(F)F)ccc3n2)cc1NC(=O)C(C)(C)C [Example 259, N-(2-methyl-5-(6-(2-(trifluoromethyl)phenyl)imidazo[1,2-b]pyridazin-2-yl)phenyl)pivalamide] | 84 | 80 |  |  | 
